Results published in patent US12172964B2, “Tricyclic octacationic cyclophane and its use in complexation with perlene diimide dyes” (Northwestern University, priority 2020, dated 2024).
Values joined by “and” are separate entries in the source; they are usually repeats but may differ in a detail not shown here. Equal values may be shown once. Marks after values point to notes of the source that are not given here. Values belong to the compound of their own block, whether it stands above or below them.

Key:
[1] = Isothermal titration calorimetry (ITC); type: binding; conditions: for ΔG: directly determined by ITC
Protocol: In all ITC experiments, ExBox.4Cl and XCage.8CF3CO2 were used in titrations. Here we use ExBox^4+ and XCage^8+ for short. All of the solutions were prepared in spectroscopic grade solvents and equilibrated for 24 h at room temperature before use. All of the titrations were independently duplicated—shown below is one set of titration isotherms—and all isotherm fittings were used to calculate the average Ka and ΔH with relevant standard errors.
Isothermal titration was performed by TA Nano Isothermal Titration Calorimeter at 25° C. A hastelloy cell was used with an active cell volume 190 μL. The stirring speed was set at 150 rpm. Receptor and substrate solutions were prepared in Milli-Q water or MeCN and allowed to equilibrate overnight if necessary. […] After subtracting the heat of dilution, the resulting data were analyzed with NanoAnalyze software using a 1:1 binding model and plotted by Origin Lab 8.6 software.

[2] = Binding thermodynamics of ExBox.4Cl towards PDI2 in water (fluorescence titration / ITC)
Protocol: Direct fluorescence titration experiments: […] All of the solutions were prepared in spectroscopic grade solvents and equilibrated for 24 h at room temperature before use. All of the titrations were independently duplicated—shown below is one set of titration isotherms—and all isotherm fittings were used to calculate the average Ka and ΔH with relevant standard errors. Isothermal titration was performed by TA Nano Isothermal Titration Calorimeter at 25° C. A hastelloy cell was used with an active cell volume 190 μL. The stirring speed was set at 150 rpm. Receptor and substrate solutions were prepared in Milli-Q water or MeCN and allowed to equilibrate overnight if necessary.

[3] = Photophysical characterization; type: physicochemical
Protocol: Commercially available solvents and chemicals were purchased from Sigma-Aldrich and Fisher Scientific and used without further purification unless otherwise stated. Water was deionized, and micro filtered using Milli-Q water filtration station. Compounds PDI1^S1 and ExBox.4Cl^S2 were prepared using previously reported procedures. Thin layer chromatography (TLC) was performed on silica gel 60 F254 (E. Merck). Flash column chromatography was performed by Combiflash Rf 200 purification system. Reverse phase column chromatography was performed on Combiflash NEXTGEN 300+ system with SNAP ULTRA C18 cartridges which were purchased from Biotage. UV/Vis Absorption spectra were recorded in a glass cuvette using a UV-3600 Shimadzu spectrophotometer. Steady-state emission spectra were acquired in a quartz cuvette with an optical path-length of 10 mm containing the solution of interest using HORIBA Fluoromax4 spectrofluorometer, which was equipped with an integrating sphere for absolute photoluminescence quantum yield determination and time-correlated single-photon counting (TCSPC) module for emission decays. Nuclear magnetic resonance (NMR) spectra were recorded on Bruker AVANCE III 500 MHz spectrometer equipped with DCH CryoProbe, with working frequencies of 500 MHz for ^1H and 125 MHz for ^13C nuclei. […] High-resolution mass spectra were measured on an Agilent 6210 Time of Flight (TOF) LC-MS, using an ESI source, coupled with Agilent 1100 HPLC stack, using direct infusion (0.6 mL/min). Single crystal data were obtained on a Bruker Kappa APEX2 CCD diffractometer using Cu-Kα radiation. Detailed experimental procedures are provided below in the appropriate sections.
The fluorescence quantum yield of PDI dyes were measured by using rhodamine 6G in EtOH (Φf=0.95) as standard.^S2 The concentrations of rhodamine 6G and PDI dyes were adjusted to the absorption value 0.08 at 450 nm. The fluorescence spectrum of each solution was obtained with excitation at 450 nm, and the integrated area was used in the fluorescence quantum yield calculation. The estimated error for this method^S13 is ±10%. The fluorescent life-time was measured by Horiba Fluoromax-4 fluorometer equipped with TCSPC. Samples were excited by a laser at 374 nm, and the fluorescence decay over time was monitored at 560 nm. The fluorescent decay profiles were analyzed by a DAS6 software and matched either by a single exponential decay or double exponential decay model through mathematic fittings.

[4] = test system: MCF-7 cells; assay: Live-cell widefield fluorescence imaging using energy transfer; type: cell-based, human; conditions: MCF-7, 20 μM, 6 h
Protocol: (§1) MCF-7 cells (human breast adenocarcinoma cell line) obtained from American Type Culture Collection (ATCC, Rockville, Md., USA) was utilized for cell culture experiments. MCF-7 cells were cultured in Dulbecco's Modified Eagle's Medium (DMEM) supplemented with 10% fetal bovine serum (FBS), penicillin (100 IU/mL) and streptomycin (100 μg/mL) at 37° C. in the presence of air (95%) and carbon dioxide (5%).
(§2) MCF-7 cells (1×10^5 cells/ml, 300 μL) were plated in each well of an 8-well chamber slide (ThermoFischer Scientific) and adhered overnight. PDI2 or PDI2⊂XCage^8+ was added to each well and incubated for 6 h or 24 h. Cells were then washed with PBS, and stained with LysoTracker green (lysosome stain, 1:1000 dilution) or NucBlue™ Live ReadyProbes™ Reagent (nuclear stain, 1 drop) or Hoechst 33342 nucleic acid stain (1:2000 dilution from 10 mg/mL stock). Plated cells were imaged within a humidified chamber using a 63× oil-immersion objective on a SP5 Leica Confocal Microscope using HyD detectors and lasers or a Deltavision Core Elite with a DAPI excitation filter (381-399 nm), DAPI emission filter (em: 411-459 nm) and TRITC emission filter (em: 571-617 nm) at equivalent light levels and exposure time. Intensity of signal in cells was measured with FIJI/ImageJ software.

[5] = test system: MCF-7 cells; assay: Live-cell confocal microscopy; type: cell-based, human; conditions: MCF-7, 10 μM, 6 h
Protocol: as §1, §2

[6] = Binding constants by direct and displacement fluorescence titration; conditions: for ΔG / Ka Fluorescence: 25° C.; for ΔG: estimated from fluorescence titrations
Protocol: (§3) In all experiments shown below, ExBox.4Cl and XCage.8CF3CO2 were used in titration studies. Here we use ExBox^4+ and XCage^8+ for short. All of the solutions were prepared in spectroscopic grade solvents and equilibrated for 24 h at room temperature before use. All of the studies were independently duplicated and the corresponding isotherms were fitted to calculate the average Ka or kon values with the relevant standard errors.
Direct fluorescence titration experiments: Since the association between PDI2 and ExBox^4+ in H2O produces turn-on fluorescence, we tracked the increase of fluorescence (ex: 545 nm, em: 555 nm) of PDI2 by varying equivalents of ExBox^4+. Caffeine is not fluorescent in H2O and its association with XCage^8+ quenches the fluorescence of XCage^8+. Thus, the fluorescence quenching of XCage^8+ was tracked by the addition of Caffeine. In MeCN, the fluorescence of perylene is quenched by XCage^8+ and thus the titration was performed by tracking the fluorescence quenching of Perylene. A plot of fluorescent intensity versus receptor concentration [R]0 or substrate concentration [S]0 was fitted with a nonlinear least-squares fitting equation for 1:1 binding model to calculate the binding constant Ka using Origin Lab 8.6 software.^S14, S15
Displacement fluorescence titration experiments in H2O: A large access of the competitor caffeine (10 mM) was pre-mixed with XCage^8+ (10 μM), and the solution was equilibrated for 30 min before titration. The substrate solution of PDI2 was injected in aliquots. For each injection, the guest displacement process was relatively slow and took about 3-10 min to reach the equilibrium as monitored by the change of fluorescence (ex: 560 nm, em: 660 nm) over time. At this excitation wavelength, PDI2⊂XCage^8+ is fluorescent; XCage^8+, PDI2 and Caffeine are nonfluorescent. The association constants were calculated by fitting the titration data with a nonlinear least-squares fitting equation for displacement binding using Origin Lab 8.6 software.^S14
Displacement fluorescence titration experiments in MeCN: Perylene (250 μM) was premixed with XCage^8+ (5 μM) in MeCN, and the solution was equilibrated for 30 min before titration. The substrate solution of PDI2 was injected in aliquot amount. Between each injection, the change of fluorescence intensity was monitored over time until the fluorescence (ex: 550 nm, em: 660 nm) intensity reached a steady state. At this excitation wavelength, […] is fluorescent while XCage^8+ and PDI2 are nonfluorescent. The association constants were calculated by fitting the titration data with a nonlinear least-squares fitting equation for displacement binding using Origin Lab 8.6 software.^S14

[7] = Binding kinetics of threading PDI2 into XCage.8CF3CO2, tracked by turn-on fluorescence; conditions: water, second order kinetic model
Protocol: as §3
Equal volume of PDI2 (1 μL, 100 μM) and XCage^8+ (1 μL, 100 μM) were mixed in H2O (1 mL) and the change of fluorescence (ex: 540 nm, em: 554 nm) was monitored over time. The resulting threading kinetics profiles were fitted using a second order kinetics model by Origin Lab 8.6 software. In MeCN, the change of fluorescence over time upon the formation of PDI2⊂XCage^8+ is too small to produce a kinetics profile as a result of the similar quantum yield between PDI2⊂XCage^8+ and PDI2.

[8] = Solubility observations; type: physicochemical

Compound: Cn1c(=O)c2c(ncn2C)n(C)c1=O [Caffeine, reference compound]
- TΔS ([1]; H2O, 25° C.): −1.5 kcal mo1^−1
- ΔH ([1]; H2O, 25° C.): −8.6 kcal mo1^−1
- ΔG ([1]; H2O, 25° C.): −7.1^c kcal mo1^−1

- binding affinity [2]: 2e+06 M⁻¹
- binding enthalpy [2]: -7.4 kcal/mol
Compound: c1cc2ccc1C[n+]1ccc(cc1)-c1ccc(cc1)-c1cc[n+](cc1)Cc1ccc(cc1)C[n+]1ccc(cc1)-c1ccc(cc1)-c1cc[n+](cc1)C2 [ExBox.4Cl]

Compound: COCCOCCOCCOCCOCCOCCOCCOCCOCCOCCOCCOCCOCCOCCOCCOCCOCCOCCOCCOCCOCCOCCOCCOCCOCCOCCOCCOCCOCCOCCOCCOCCOCCOCCOCCOCCOCCOCCOCCOCCOCCOCCOCCOCCOCCN1C(=O)c2ccc3c4ccc5c6c(ccc(c7ccc(c2c37)C1=O)c64)C(=O)N(CCOCCOCCOCCOCCOCCOCCOCCOCCOCCOCCOCCOCCOCCOCCOCCOCCOCCOCCOCCOCCOCCOCCOCCOCCOCCOCCOCCOCCOCCOCCOCCOCCOCCOCCOCCOCCOCCOCCOCCOCCOCCOCCOCCOCCOC)C5=O [PDI2]
- logε ([3]; H2O): 4.48
- Φf ([3]; H2O): 0.04
- λabs ([3]; H2O): 497/534
- λem ([3]; H2O): 542/586/633
- λex ([3]; H2O): 461/502/529
- τ ([3]; H2O): 4.7 ns and 4.71 ns
- fluorescence quantum yield ([3]; MeCN): 66%
- logε ([3]; MeCN): 4.91
- red shift of absorption and emission maxima of PDI2 in the presence of XCage.8CF3CO2 ([3]; MeCN): 23-25 nm
- Φf ([3]; MeCN): 0.66
- λem ([3]; MeCN): 529/568/617
- λex ([3]; MeCN): 452/482/518
- τ ([3]; MeCN): 4.47 ns
- fluorescence quantum yield ([3]; water): 4%
- fluorescence signal, DAPI excitation filter (ex: 381-399 nm), TRITC emission filter (em: 571-617 nm) [4]: did not show any fluorescence signal
- TΔS ([1]; H2O, 25° C.): 0.7 kcal mo1^−1
- ΔH ([1]; H2O, 25° C.): −14.1 kcal mo1^−1
- TΔS ([1]; MeCN, 25° C.): 2.8 kcal mo1^−1
- ΔH ([1]; MeCN, 25° C.): −10.2 kcal mo1^−1
- binding enthalpy in water higher than in MeCN ([1]; water versus MeCN): 4 kcal/mol
- fluorescence in brightfield-merged confocal images [5]: no fluorescence
- ΔG ([6]; H2O): −14.8^d kcal mo1^−1
- Ka Fluorescence ([6]; H2O, PDI2 by displacement in presence of 1000 molar equivalents of Caffeine): 7.7e+10 M⁻¹
- ΔG ([6]; MeCN): −13.0^d kcal mo1^−1
- kon [7]: (4.8±1.1)×10^5 M^−1s^−1

Compound: c1cc2cccc3c4cccc5cccc(c(c1)c23)c54 [Perylene, reference compound]
- Ka ITC ([1]; MeCN, 25° C.): 3.6e+06 M⁻¹
- TΔS ([1]; MeCN, 25° C.): 2.0 kcal mo1^−1
- ΔH ([1]; MeCN, 25° C.): −06.9 kcal mo1^−1
- ΔG ([1]; MeCN, 25° C.): −08.9^c kcal mo1^−1
- Ka Fluorescence ([6]; MeCN, PDI2 by displacement of 50 molar equivalents of Perylene): 5e+06 M⁻¹

Compound: c1cc2ccc1C[n+]1ccc(cc1)-c1cc3cc(c1)-c1cc4cc(c1)-c1cc[n+](cc1)Cc1ccc(cc1)C[n+]1ccc(cc1)-c1cc(cc(c1)-c1cc(cc(c1)-c1cc[n+](cc1)Cc1ccc(cc1)C[n+]1ccc-3cc1)-c1cc[n+](cc1)C2)-c1cc[n+](cc1)Cc1ccc(cc1)C[n+]1ccc-4cc1 [XCage.8CF3CO2]
- blue fluorescence emission range ([3]; water): 350-550 nm
- fluorescence quantum yield ([3]; water): 10%
- TΔΔS, loss of binding entropy compared with ExBox.4Cl ([1]; water, guest PDI2): -0.5 kcal/mol
- ΔΔH, gain in binding enthalpy compared with ExBox.4Cl ([1]; water, guest PDI2): -6.7 kcal/mol
- binding constant for Perylene, times higher than that of ExBox^4+.4PF6 ([6]; MeCN): about 86
- enhancement of binding affinity towards PDI2 compared with ExBox.4Cl (factor) ([6]; water): 38,000
- solubility ([8]; MeCN): slightly soluble
- solubility ([8]; water and MeOH): highly soluble
